In BigSolDB 2.1:

CCOC(=O)C1(c2ccccc2)CCN(CCC(C#N)(c2ccccc2)c2ccccc2)CC1
solubility (mole fraction)
Conditions	278.15 K	283.15 K	288.15 K	293.15 K	298.15 K	303.15 K	308.15 K	313.15 K	318.15 K
in acetonitrile	0.00208	0.00256	0.0033	0.00386	0.00492	0.0059	0.00738	0.00941	0.0126
in ethanol	0.000882	0.00109	0.00127	0.00154	0.00193	0.00227	0.00277	0.0034	0.00432
in isopropanol	0.000106	0.000155	0.000208	0.000274	0.000421	0.000601	0.000838	0.00114	0.00156
in methanol	0.00341	0.00419	0.00501	0.0063	0.00759	0.00952	0.0118	0.0147	0.0186
in water	4.09e-06	5.3e-06	6.84e-06	9.18e-06	1.14e-05	1.48e-05	1.91e-05	2.54e-05	3.28e-05
